The source of these data is patent US11319273B2, “Lipophilic curcumin analogs and methods of inhibiting HIV-1, treating latent HIV in the brain, and preventing HIV-mediated cognitive decline and HIV dementia” (Howard University, priority 2012, dated 2022).

The subject of series [1] is BDNF. Nature of the series: Effect on BDNF mRNA level in CEM cells. It counts as cell-based. The note with it: CEM cells (FIG. 4). The source says: (§1) Along with brain-derived neurotrophic factor (“BDNF”), protein kinase B (“AKT”), and mitogen-activated protein kinase 1 (“MAPK1”) (i.e., ERK1/2) genes are known to critically regulate cell survival and growth of neurons during development and the survival and function of adult neurons, as well as modulate synaptic transmission and plasticity. This example compares activities of natural curcumin and curcumin analog (1E,4E)-1,5-bis(4-hydroxy-3-methoxyphenyl)penta-1,4-dien-3-one on AKT, MAPK1 and […]. The analog was predicted to be more biologically soluble, absorbable, and more resistant to degradation than the natural curcumin. It has already been shown that natural curcumin increases the expression of BDNF in the hippocampus of rats. It was believed that, compared to natural curcumin, the analog would result in greater increase in the activities of these three neuroprotective genes as proof-of-principle of neuroprotection from latent HIV brain disease. The analysis was conducted on CEM cell lines, which are cells that are susceptible to HIV infection.

For series [2], the system named is AKT1. Nature of the series: Effect on AKT1 mRNA level in CEM cells. It counts as cell-based. The settings on record: CEM cells (FIG. 4).
Text: as §1

Series [3] has as its system MAPK1. Nature of the series: Effect on MAPK1 mRNA level in CEM cells. Type of series: cell-based. The settings on record: CEM cells (FIG. 4).
Text: as §1

Series [4] in a line: Lipophilicity (octanol-water partition coefficient). It counts as physicochemical. An excerpt:
As used herein, lipophilicity refers to the affinity of a compound for a lipophilic environment. By one approach, lipophilicity can be determined using an octanol-water partition coefficient (Kow), which represents the ratio of the solubility of a compound in octanol (a non-polar solvent) to its solubility in water (a polar solvent). The higher the Kow, the more non-polar the compound. Log Kow values are generally inversely related to aqueous solubility and directly proportional to molecular weight. For purposes herein, lipophilicity values range between 0 to 10 and a value of at least 2.5 indicates good lipophilicity. A log Kow value less than 0 is considered hydrophilic.

The subject of series [5] is vesicular stomatitus virus glycoprotein (VSVG) pseudotyped HIV-1 pNL 4-3 virus expressing luciferase (VSVG-HIV-1 Luc). Description: microbe, parasite or virus in culture. The note with it: Human immunodeficiency virus 1, T-cell, 48 h, read-out: anti-HIV activity IC50.
For series [6] the test system is unchanged.

Turning to `COc1cc(/C=C/C(=O)CC(=O)/C=C/c2ccc(O)c(OC)c2)ccc1O` [Natural curcumin, Curcumin], the “BDNF mRNA level” value in series [1] is given as “decrease”. Besides, in series [2], the “AKT1 mRNA level” value is “slight increase”. In addition, in series [3], the “MAPK1 mRNA level” value is “slight increase”.
The IC50 is the concentration that inhibits the measured activity by half. On to `COc1cc(/C=C/C(=O)/C=C/c2ccc(O)c(OC)c2)ccc1O` [curcumin analog, (1E,4E)-1,5-bis(4-hydroxy-3-methoxyphenyl)penta-1,4-dien-3-one], for which the “BDNF mRNA level” value in series [1] is recorded as “significantly increased”. The lipophilicity entry in series [4] was “very lipophilic”. For the same molecule, the “AKT1 mRNA level” value in series [2] is on record as “significantly increased”. Besides, the IC50 in series [5] is 8 nM. In addition, the “MAPK1 mRNA level” value in series [3] is given as “significantly increased”. Further, in series [6], the “inhibition of HIV-1 virus in vitro” value is given as “able to inhibit HIV at the nanomolar level” and the “therapeutic index (IC50:cytotoxicity ratio) as compared to curcumin” value is “wider therapeutic index”.
